No end group written: not given here.
Tests used:
[1] = test system: E. coli ATCC 25922; assay: Post-antibiotic effect (PAE), growth kinetics after washout; assay type: cell-based, Escherichia coli; conditions: 30 min treatment at MIC
Protocol: An overnight culture of E. coli ATCC 25922, prepared as described above, was diluted to a final concentration of 5 × 10^6 CFU/mL and then incubated at 37 °C for 30 min in the presence or absence of each peptide or antibiotic at various concentrations, with a final volume of 1 mL. To measure the post-antibiotic effect (PAE) of antimicrobials, the compounds were removed from the supernatant by centrifugation (16,000 × g for 5 min) and bacteria were washed and resuspended in 1 mL of fresh supplemented MHB medium, to promote faster growth visible as increased absorbance. 200 μL of each sample was then transferred to a 96-well round-bottom microplate (Sarstedt, Milan, Italy), which was then placed in a Nanoquant Infinite-M200Pro plate reader with stable temperature at 37 °C. Each sample was surrounded by water-filled wells to reduce its own evaporation. Optical density at 600 nm was then recorded for each sample every hour for up to 18 h. PAE was calculated according to [Holfeld et al. (2018)] as the difference between the time needed for a cell culture incubated with an antibiotic substance to reach half-maximum absorbance of the control culture and the time that the control culture needed to reach half-maximum absorbance of the stationary phase. According to this definition, the PAE of each compound (expressed as time) was calculated based on the OD₆₀₀ value of its respective replicate, which corresponded to half of the maximum absorbance reached by the control culture in the stationary phase (at 18 h). The mean PAE values (PAE in hours) of each compound, were obtained by averaging the times from the three independent experiments.

[2] = test system: K. pneumoniae ATCC 700603; assay: Cell membrane permeabilization, propidium iodide flow cytometry; assay type: cell-based, Klebsiella pneumoniae; conditions: compound at its MIC, 40 min, 5 × 10^6 CFU/mL, supplemented M9; mean of n = 3
Protocol: An overnight culture of E. coli ATCC 25922, or of K. pneumoniae ATCC 700603, prepared as described above, was diluted to a final concentration of 5 × 10^6 CFU/mL and allowed to adjust for 30 min at 37 °C under shaking. Membrane permeabilization of bacteria was then assessed by incubating bacteria at 37 °C, in a final volume of 1 mL, with varying concentrations of each peptide or antibiotic used for the BONCAT assay. 5 min before the ending of the selected incubation time (40 min), propidium iodide probe was added to the samples to a final concentration of 10 μg/mL before analysis using a flow cytometer. A positive control consisted of E. coli cells dehydrated with ethanol (as described above), while untreated cells were used as negative control. The fluorescence of untreated cells was used to establish the gating for positive PI-stained cells. Fixed bacterial cells, subjected to the click chemistry reaction to link the Alexa Fluor azide 488 probe, were analysed by flow cytometry and, among the gates-selected ones, only those that tested positive for Propidium Iodide, and thus permeabilized, were considered for the calculation of the mean fluorescence intensity (MFI) of the Alexa Fluor azide 488.
Samples were analyzed by an Attune NxT® (ThermoFisher) equipped with a blue laser (488 nm) and photomultiplier tubes (PMTs) BL1 (525/50) and BL3 (695/40) to collect fluorescence. All parameters were set in logarithmic scale and the signals were recorded as Area. Forward scattering (FSC) was set to 300 mV, side scattering (SSC) to 350 mV and thresholds to 0.2 for FSC and 0.5 for SSC. The compensation matrix was performed according to the tool software. Hierarchical gates and acquisition flow rate (200 μL/min) were set to avoid coincident events. The files were saved as FCS 3.1 and analysed by FCS Express De Novo software v7. Flow cytometry data are presented as means ± SD from three independent experiments (n = 3).

[3] = OD600 every hour for 18 h in MHB, mean ± SD, n = 3

Molecule | PAE [1] | PAE [1, 3] [h] | Membrane permeabilization (% PI +cells) [2] [%]
O=C(N[C@H](CO)[C@H](O)c1ccc([N+](=O)[O-])cc1)C(Cl)Cl [CHL, Chloramphenicol] | about half an hour | 0.6 ± 1.2 | –
CO[C@H]1/C=C/O[C@@]2(C)Oc3c(C)c(O)c4c(O)c(c(/C=N/N5CCN(C)CC5)c(O)c4c3C2=O)NC(=O)/C(C)=C\C=C\[C@H](C)[C@H](O)[C@@H](C)[C@@H](O)[C@@H](C)[C@H](OC(C)=O)[C@@H]1C [RIF, Rifampicin] | – | 1.6 ± 1.1 | <1
RRIRPRPPRLPRPRPR [Bac7(1–16)] | – | 1.7 ± 0.9 | <1
RRIRPRPPRLPRPRPRPLPFPRPGPRPIPRPLPFP [Bac7(1–35)] | 3 h | 2.9 ± 0.5 | <1

Source: PMC12748266, “Testing antimicrobial peptides inhibiting protein synthesis in living E. coli and K. pneumoniae using bio-orthogonal non-canonical amino-acid tagging” (Frontiers in Microbiology, 2025)
